Measurements published in patent US8501753B2, “Useful pharmaceutical salts of 7-[(3R, 4R)-3-Hydroxy-4-hydroxymethyl-pyrrolidin-1-ylmethyl]-3, 5-dihydro-pyrrolo [3, 2-D] pyrimidin-4-one” (BioCryst Pharmaceuticals, Inc., priority 2009, dated 2013).

Test: Water sorption/desorption by dynamic vapor sorption (DVS)
Type: physicochemical
Conditions: water sorption/desorption chamber
From the text: Table 4 provides a summary of other solid state data collected for the monohydrate salts of compound 1 described in Examples 33-39. The temperature at which the salts dehydrated per DSC is shown in column 2. The percent weight loss as determined by TGA is shown in column 3; the weight loss approximated theoretical weight loss.

| SMILES | Weight gain from 0 to 20% RH from DVS | Weight gain from 0 to 90% RH from DVS |
| --- | --- | --- |
| O.O.O=C(O)CC(O)C(=O)O.O=c1[nH]cnc2c(CN3CC(O)C(CO)C3)c[nH]c12.O=c1[nH]cnc2c(CN3CC(O)C(CO)C3)c[nH]c12 [Hemi-L-malate] | 0.87 | 5.68 |
| O.O.O=C(O)CCC(=O)O.O=c1[nH]cnc2c(CN3CC(O)C(CO)C3)c[nH]c12.O=c1[nH]cnc2c(CN3CC(O)C(CO)C3)c[nH]c12 (stereo not shown) [Hemisuccinate] | 5.44 | 6.04 |
